Test results as given in the kinase profiling compilation of Christmann-Franck et al. (2016).

Experiments:
Test in all cases: radiometric filter-binding kinase assay, Kinase HotSpot
Conditions in all cases: compound 0.5 µM; ATP 10 µM
MYLK2 (human) = MYLK2 (human) (UniProt Q9H1R3)
DCLK2 (human) = DCLK2 (human) (UniProt Q8N568)
MARK3 (human) = MARK3 (human) (UniProt P27448)
STK10 (human) = STK10 (human) (UniProt O94804)
BRSK1 (human) = BRSK1 (human) (UniProt Q8TDC3)
ITK (human) = ITK (human) (UniProt Q08881)
PRKD2 (human) = PRKD2 (human) (UniProt Q9BZL6)
CDK3 CCNE1 (human) = CDK3 CCNE1 (human) (UniProt Q00526+P24864)
ERBB4 (human) = ERBB4 (human) (UniProt Q15303)
EPHA3 (human) = EPHA3 (human) (UniProt P29320)
CAMK2G (human) = CAMK2G (human) (UniProt Q13555)
EPHA5 (human) = EPHA5 (human) (UniProt P54756)
SRPK1 (human) = SRPK1 (human) (UniProt Q96SB4)
PAK4 (human) = PAK4 (human) (UniProt O96013)
PBK (human) = PBK (human) (UniProt Q96KB5)
MAP4K4 (human) = MAP4K4 (human) (UniProt O95819)
NLK (human) = NLK (human) (UniProt Q9UBE8)
PASK (human) = PASK (human) (UniProt Q96RG2)
CSNK1G2 (human) = CSNK1G2 (human) (UniProt P78368)
NEK1 (human) = NEK1 (human) (UniProt Q96PY6)
TGFBR2 (human) = TGFBR2 (human) (UniProt P37173)
ACVR1 (human) = ACVR1 (human) (UniProt Q04771)
MAPK12 (human) = MAPK12 (human) (UniProt P53778)
PRKG2 (human) = PRKG2 (human) (UniProt Q13237)
MAP3K11 (human) = MAP3K11 (human) (UniProt Q16584)
GSK3A (human) = GSK3A (human) (UniProt P49840)
ABL2 (human) = ABL2 (human) (UniProt P42684)
NEK2 (human) = NEK2 (human) (UniProt P51955)
KDR (human) = KDR (human) (UniProt P35968)
DAPK2 (human) = DAPK2 (human) (UniProt Q9UIK4)
TEC (human) = TEC (human) (UniProt P42680)
CDK6 CCND3 (human) = CDK6 CCND3 (human) (UniProt P30281+Q00534)
EGFR (human) = EGFR (human) (UniProt P00533)
HIPK4 (human) = HIPK4 (human) (UniProt Q8NE63)
RPS6KA1 KD1 KD2 (human) = RPS6KA1 KD1 KD2 (human) (UniProt Q15418)
TAOK1 (human) = TAOK1 (human) (UniProt Q7L7X3)
CAMK2D (human) = CAMK2D (human) (UniProt Q13557)
SGK2 (human) = SGK2 (human) (UniProt Q9HBY8)
TAOK3 (human) = TAOK3 (human) (UniProt Q9H2K8)

Sequence of MAP4K4 (human) (O95819 whole entry, looked up): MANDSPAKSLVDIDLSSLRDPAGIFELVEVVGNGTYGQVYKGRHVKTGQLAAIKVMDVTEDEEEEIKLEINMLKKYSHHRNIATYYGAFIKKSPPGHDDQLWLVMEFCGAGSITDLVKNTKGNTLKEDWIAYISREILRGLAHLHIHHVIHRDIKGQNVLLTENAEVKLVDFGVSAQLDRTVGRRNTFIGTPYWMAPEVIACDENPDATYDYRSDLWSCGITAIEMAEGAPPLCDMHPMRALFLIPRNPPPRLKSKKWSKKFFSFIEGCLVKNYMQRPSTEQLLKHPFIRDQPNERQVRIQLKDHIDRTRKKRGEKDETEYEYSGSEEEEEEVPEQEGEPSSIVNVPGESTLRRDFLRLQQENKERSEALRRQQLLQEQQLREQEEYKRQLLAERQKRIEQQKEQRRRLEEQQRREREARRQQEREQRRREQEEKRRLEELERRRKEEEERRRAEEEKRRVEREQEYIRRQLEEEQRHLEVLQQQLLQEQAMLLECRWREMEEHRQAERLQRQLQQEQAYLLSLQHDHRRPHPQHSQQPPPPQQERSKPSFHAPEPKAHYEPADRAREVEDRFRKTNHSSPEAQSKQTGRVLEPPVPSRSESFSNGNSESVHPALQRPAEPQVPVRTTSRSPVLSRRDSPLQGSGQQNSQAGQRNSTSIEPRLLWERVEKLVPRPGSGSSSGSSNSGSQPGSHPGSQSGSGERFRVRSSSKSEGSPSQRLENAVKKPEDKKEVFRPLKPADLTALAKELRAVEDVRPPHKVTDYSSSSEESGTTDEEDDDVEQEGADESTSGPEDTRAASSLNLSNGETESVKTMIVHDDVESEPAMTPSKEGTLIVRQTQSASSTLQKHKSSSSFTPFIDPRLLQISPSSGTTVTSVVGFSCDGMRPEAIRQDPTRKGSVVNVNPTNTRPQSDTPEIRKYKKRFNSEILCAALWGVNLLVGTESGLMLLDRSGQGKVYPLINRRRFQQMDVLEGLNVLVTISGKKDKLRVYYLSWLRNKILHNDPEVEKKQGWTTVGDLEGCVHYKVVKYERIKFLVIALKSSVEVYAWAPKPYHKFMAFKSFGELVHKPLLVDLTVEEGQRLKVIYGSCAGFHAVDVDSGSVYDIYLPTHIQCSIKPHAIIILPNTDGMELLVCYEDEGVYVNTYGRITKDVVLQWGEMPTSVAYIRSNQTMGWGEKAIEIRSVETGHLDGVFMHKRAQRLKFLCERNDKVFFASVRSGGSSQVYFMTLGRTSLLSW
Sequence of KDR (human) (P35968 whole entry, looked up): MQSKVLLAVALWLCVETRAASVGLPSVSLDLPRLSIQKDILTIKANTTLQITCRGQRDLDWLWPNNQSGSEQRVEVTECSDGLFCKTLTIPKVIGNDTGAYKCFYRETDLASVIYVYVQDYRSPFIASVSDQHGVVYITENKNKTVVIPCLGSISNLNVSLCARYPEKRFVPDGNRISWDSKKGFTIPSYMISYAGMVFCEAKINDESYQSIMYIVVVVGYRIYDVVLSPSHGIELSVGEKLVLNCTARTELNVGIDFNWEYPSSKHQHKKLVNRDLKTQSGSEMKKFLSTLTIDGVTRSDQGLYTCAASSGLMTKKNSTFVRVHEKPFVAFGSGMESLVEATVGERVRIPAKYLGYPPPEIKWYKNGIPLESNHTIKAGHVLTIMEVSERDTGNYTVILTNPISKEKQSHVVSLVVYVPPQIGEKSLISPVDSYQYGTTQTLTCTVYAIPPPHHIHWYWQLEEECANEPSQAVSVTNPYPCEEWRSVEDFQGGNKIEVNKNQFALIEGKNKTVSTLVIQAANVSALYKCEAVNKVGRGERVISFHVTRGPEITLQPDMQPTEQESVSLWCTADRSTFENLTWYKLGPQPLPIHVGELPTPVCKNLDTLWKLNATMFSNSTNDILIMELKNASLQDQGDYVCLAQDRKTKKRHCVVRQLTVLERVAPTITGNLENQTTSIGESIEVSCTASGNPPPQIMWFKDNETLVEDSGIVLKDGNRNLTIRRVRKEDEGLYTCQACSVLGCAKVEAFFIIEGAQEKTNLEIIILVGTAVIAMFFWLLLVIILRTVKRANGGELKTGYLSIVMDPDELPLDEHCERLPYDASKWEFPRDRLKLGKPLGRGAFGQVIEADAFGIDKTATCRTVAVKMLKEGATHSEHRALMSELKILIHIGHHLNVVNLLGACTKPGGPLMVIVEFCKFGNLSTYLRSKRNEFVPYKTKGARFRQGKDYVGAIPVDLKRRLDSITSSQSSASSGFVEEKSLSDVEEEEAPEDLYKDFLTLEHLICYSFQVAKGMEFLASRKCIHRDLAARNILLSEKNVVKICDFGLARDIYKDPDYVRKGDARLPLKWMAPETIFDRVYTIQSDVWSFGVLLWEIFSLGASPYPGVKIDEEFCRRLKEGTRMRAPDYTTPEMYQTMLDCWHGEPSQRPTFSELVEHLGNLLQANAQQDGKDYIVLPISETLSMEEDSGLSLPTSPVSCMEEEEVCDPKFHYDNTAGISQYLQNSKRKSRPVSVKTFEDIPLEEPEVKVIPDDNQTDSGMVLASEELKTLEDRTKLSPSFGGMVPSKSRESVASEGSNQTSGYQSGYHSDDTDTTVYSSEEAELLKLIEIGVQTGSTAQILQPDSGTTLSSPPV
Sequence of ACVR1 (human) (Q04771 whole entry, looked up): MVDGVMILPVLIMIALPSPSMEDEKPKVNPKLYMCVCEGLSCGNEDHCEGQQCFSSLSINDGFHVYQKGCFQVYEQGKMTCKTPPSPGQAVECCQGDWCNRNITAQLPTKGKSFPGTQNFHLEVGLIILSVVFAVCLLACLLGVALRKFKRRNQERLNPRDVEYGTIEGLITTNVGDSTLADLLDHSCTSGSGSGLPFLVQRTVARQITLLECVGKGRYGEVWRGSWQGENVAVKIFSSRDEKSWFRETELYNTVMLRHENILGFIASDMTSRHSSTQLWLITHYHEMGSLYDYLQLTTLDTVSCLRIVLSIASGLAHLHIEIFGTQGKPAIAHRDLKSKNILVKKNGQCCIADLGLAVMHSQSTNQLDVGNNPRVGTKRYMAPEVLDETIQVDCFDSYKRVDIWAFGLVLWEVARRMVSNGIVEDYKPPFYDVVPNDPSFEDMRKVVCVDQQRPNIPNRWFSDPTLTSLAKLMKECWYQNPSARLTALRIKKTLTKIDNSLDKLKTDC
Sequence of CAMK2D (human) (Q13557 whole entry, looked up): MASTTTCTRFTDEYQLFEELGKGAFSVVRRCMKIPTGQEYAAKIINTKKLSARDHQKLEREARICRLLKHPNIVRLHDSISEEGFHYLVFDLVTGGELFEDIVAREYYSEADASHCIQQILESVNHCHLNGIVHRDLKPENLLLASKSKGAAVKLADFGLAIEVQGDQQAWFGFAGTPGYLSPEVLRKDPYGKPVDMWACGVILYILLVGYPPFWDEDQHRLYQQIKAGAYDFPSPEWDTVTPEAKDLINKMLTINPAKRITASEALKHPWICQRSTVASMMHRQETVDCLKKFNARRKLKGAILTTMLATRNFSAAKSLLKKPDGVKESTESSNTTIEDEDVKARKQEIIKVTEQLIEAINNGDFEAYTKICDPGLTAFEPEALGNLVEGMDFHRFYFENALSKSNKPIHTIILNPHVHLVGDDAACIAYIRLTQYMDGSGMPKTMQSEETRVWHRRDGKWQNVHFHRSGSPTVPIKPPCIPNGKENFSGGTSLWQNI
Sequence of ABL2 (human) (P42684 whole entry, looked up): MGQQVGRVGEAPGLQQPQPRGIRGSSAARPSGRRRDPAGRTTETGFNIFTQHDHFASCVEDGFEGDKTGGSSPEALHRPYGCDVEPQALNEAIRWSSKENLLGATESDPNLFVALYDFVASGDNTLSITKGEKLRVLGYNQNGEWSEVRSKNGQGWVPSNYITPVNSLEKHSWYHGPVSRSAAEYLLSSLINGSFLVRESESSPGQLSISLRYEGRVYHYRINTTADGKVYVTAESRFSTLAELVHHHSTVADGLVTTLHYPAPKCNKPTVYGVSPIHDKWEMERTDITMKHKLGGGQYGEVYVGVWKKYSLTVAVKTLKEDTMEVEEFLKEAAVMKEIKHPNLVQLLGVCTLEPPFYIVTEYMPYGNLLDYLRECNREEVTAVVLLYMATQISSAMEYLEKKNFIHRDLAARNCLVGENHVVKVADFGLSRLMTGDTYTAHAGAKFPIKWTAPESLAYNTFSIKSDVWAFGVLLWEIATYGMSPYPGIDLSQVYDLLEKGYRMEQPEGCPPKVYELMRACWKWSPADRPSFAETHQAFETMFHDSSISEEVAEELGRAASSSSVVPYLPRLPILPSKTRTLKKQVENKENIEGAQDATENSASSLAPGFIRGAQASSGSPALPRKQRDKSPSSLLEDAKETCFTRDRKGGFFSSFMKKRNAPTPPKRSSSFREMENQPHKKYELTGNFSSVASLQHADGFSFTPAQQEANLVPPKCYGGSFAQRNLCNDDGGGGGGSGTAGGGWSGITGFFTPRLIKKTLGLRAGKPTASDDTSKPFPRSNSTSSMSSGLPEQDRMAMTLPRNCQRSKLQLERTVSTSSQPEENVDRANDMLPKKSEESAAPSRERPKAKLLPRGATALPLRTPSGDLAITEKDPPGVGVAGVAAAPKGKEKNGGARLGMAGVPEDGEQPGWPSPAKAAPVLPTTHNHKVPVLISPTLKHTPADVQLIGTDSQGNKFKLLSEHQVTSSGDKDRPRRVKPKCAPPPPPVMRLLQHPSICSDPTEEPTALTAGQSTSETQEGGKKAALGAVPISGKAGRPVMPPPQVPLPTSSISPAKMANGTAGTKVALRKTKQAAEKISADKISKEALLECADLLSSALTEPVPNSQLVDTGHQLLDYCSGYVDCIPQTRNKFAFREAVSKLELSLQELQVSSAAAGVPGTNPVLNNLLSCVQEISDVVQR

COc1ccc(C(=O)Nc2sc3c(c2C(N)=O)CCCC3)cc1OC
residual activity (MYLK2 (human)): 94.4% | residual activity (DCLK2 (human)): 98.6% | residual activity (MARK3 (human)): 94.1% | residual activity (STK10 (human)): 93.9% | residual activity (BRSK1 (human)): 105% | residual activity (ITK (human)): 99.6% | residual activity (PRKD2 (human)): 99.4% | residual activity (CDK3 CCNE1 (human)): 104% | residual activity (ERBB4 (human)): 97.2% | residual activity (EPHA3 (human)): 108% | residual activity (CAMK2G (human)): 95.8% | residual activity (EPHA5 (human)): 104% | residual activity (SRPK1 (human)): 82.6% | residual activity (PAK4 (human)): 95.9% | residual activity (PBK (human)): 103% | residual activity (MAP4K4 (human)): 79.9% | residual activity (NLK (human)): 93.7% | residual activity (PASK (human)): 101% | residual activity (CSNK1G2 (human)): 98.7% | residual activity (NEK1 (human)): 89.8% | residual activity (TGFBR2 (human)): 134% | residual activity (ACVR1 (human)): 159% | residual activity (MAPK12 (human)): 96.5% | residual activity (PRKG2 (human)): 104% | residual activity (MAP3K11 (human)): 96.8% | residual activity (GSK3A (human)): 83.6% | residual activity (ABL2 (human)): 101% | residual activity (NEK2 (human)): 95.4% | residual activity (KDR (human)): 78.2% | residual activity (DAPK2 (human)): 106% | residual activity (TEC (human)): 115% | residual activity (CDK6 CCND3 (human)): 94.9% | residual activity (EGFR (human)): 99.9% | residual activity (HIPK4 (human)): 103% | residual activity (RPS6KA1 KD1 KD2 (human)): 87% | residual activity (TAOK1 (human)): 95.5% | residual activity (CAMK2D (human)): 104% | residual activity (SGK2 (human)): 100% | residual activity (TAOK3 (human)): 100%

COc1ccc2c(c1)c(C1=C(c3c[nH]c4ccccc34)C(=O)NC1=O)cn2CCCN(C)C
residual activity (MYLK2 (human)): 96% | residual activity (DCLK2 (human)): 84.8% | residual activity (MARK3 (human)): 92.2% | residual activity (STK10 (human)): 31.7% | residual activity (BRSK1 (human)): 81.9% | residual activity (ITK (human)): 70.4% | residual activity (PRKD2 (human)): 92.3% | residual activity (CDK3 CCNE1 (human)): 78.8% | residual activity (ERBB4 (human)): 93.4% | residual activity (EPHA3 (human)): 94.1% | residual activity (CAMK2G (human)): 91.1% | residual activity (EPHA5 (human)): 87.2% | residual activity (SRPK1 (human)): 116% | residual activity (PAK4 (human)): 94.8% | residual activity (PBK (human)): 96.8% | residual activity (MAP4K4 (human)): 37.8% | residual activity (NLK (human)): 87.9% | residual activity (PASK (human)): 83.8% | residual activity (CSNK1G2 (human)): 82.2% | residual activity (NEK1 (human)): 94.7% | residual activity (TGFBR2 (human)): 120% | residual activity (ACVR1 (human)): 98% | residual activity (MAPK12 (human)): 84.8% | residual activity (PRKG2 (human)): 60.7% | residual activity (MAP3K11 (human)): 75.6% | residual activity (GSK3A (human)): 14% | residual activity (ABL2 (human)): 77.7% | residual activity (NEK2 (human)): 99.7% | residual activity (KDR (human)): 40.7% | residual activity (DAPK2 (human)): 81.1% | residual activity (TEC (human)): 97.9% | residual activity (CDK6 CCND3 (human)): 85% | residual activity (EGFR (human)): 92.6% | residual activity (HIPK4 (human)): 101% | residual activity (RPS6KA1 KD1 KD2 (human)): 16% | residual activity (TAOK1 (human)): 99.5% | residual activity (CAMK2D (human)): 74.8% | residual activity (SGK2 (human)): 92.6% | residual activity (TAOK3 (human)): 78.2%

NC(=O)c1cccc(-c2cc(Nc3ccc(OC(F)(F)F)cc3)ncn2)c1
residual activity (MYLK2 (human)): 97.1% | residual activity (DCLK2 (human)): 104% | residual activity (MARK3 (human)): 100% | residual activity (STK10 (human)): 101% | residual activity (BRSK1 (human)): 98.4% | residual activity (ITK (human)): 95.3% | residual activity (PRKD2 (human)): 102% | residual activity (CDK3 CCNE1 (human)): 98.8% | residual activity (ERBB4 (human)): 85.3% | residual activity (EPHA3 (human)): 97.5% | residual activity (CAMK2G (human)): 102% | residual activity (EPHA5 (human)): 103% | residual activity (SRPK1 (human)): 98% | residual activity (PAK4 (human)): 94.6% | residual activity (PBK (human)): 72.2% | residual activity (MAP4K4 (human)): 104% | residual activity (NLK (human)): 93.4% | residual activity (PASK (human)): 100% | residual activity (CSNK1G2 (human)): 89.5% | residual activity (NEK1 (human)): 89.6% | residual activity (TGFBR2 (human)): 94.9% | residual activity (ACVR1 (human)): 99.4% | residual activity (MAPK12 (human)): 111% | residual activity (PRKG2 (human)): 96.4% | residual activity (MAP3K11 (human)): 99.4% | residual activity (GSK3A (human)): 93.9% | residual activity (ABL2 (human)): 106% | residual activity (NEK2 (human)): 95.6% | residual activity (KDR (human)): 99.8% | residual activity (DAPK2 (human)): 99.1% | residual activity (TEC (human)): 139% | residual activity (CDK6 CCND3 (human)): 96.2% | residual activity (EGFR (human)): 96.6% | residual activity (HIPK4 (human)): 101% | residual activity (RPS6KA1 KD1 KD2 (human)): 92.7% | residual activity (TAOK1 (human)): 92.9% | residual activity (CAMK2D (human)): 90.8% | residual activity (SGK2 (human)): 116% | residual activity (TAOK3 (human)): 107%
